In patent US12152020B2, “Pesticidally active azole-amide compounds” (SYNGENTA PARTICIPATIONS AG, priority 2018, dated 2024):

Tests used:
Assay type in all cases: in vivo
[1] = test system: Diabrotica balteata (Corn Root Worm); assay: Example B1: Diabrotica balteata, maize sprouts sprayed, L2 larvae; settings: 96 h, application rate of 200 ppm, 4 days after infestation, in comparison to untreated samples, read-out: effect in at least one of the two categories (mortality or growth inhibition)
Experimental: Example B1: Diabrotica balteata (Corn Root Worm)
Maize sprouts placed onto an agar layer in 24-well microtiter plates were treated with aqueous test solutions prepared from 10′000 ppm DMSO stock solutions by spraying. After drying, the plates were infested with L2 larvae (6 to 10 per well). The samples were assessed for mortality and growth inhibition in comparison to untreated samples 4 days after infestation.
The following compounds gave an effect of at least 80% in at least one of the two categories (mortality or growth inhibition) at an application rate of 200 ppm: • P2, P3, P4, P5, P6, P7, P8, P14, P15, P16, P17, P18, P19, P20, P21, P22, P23, P24, P25, P27, P28, P29, P30, P31, P32, P33, P34, P35

[2] = test system: Chilo suppressalis (Striped Rice Stemborer); assay: Example B4: Chilo suppressalis, artificial diet, L2 larvae; settings: 144 h, application rate of 200 ppm, 6 days after infestation, in comparison to untreated samples, read-out: control in at least one of the categories (mortality, anti-feedant effect, or growth inhibition)
Experimental: Example B4: Chilo suppressalis (Striped Rice Stemborer)
24-well microtiter plates with artificial diet were treated with aqueous test solutions prepared from 10′000 ppm DMSO stock solutions by pipetting. After drying, the plates were infested with L2 larvae (6-8 per well). The samples were assessed for mortality, anti-feeding effect, and growth inhibition in comparison to untreated samples 6 days after infestation. Control of Chilo suppressalis by a test sample is given when at least one of the categories mortality, anti-feedant effect, and growth inhibition is higher than the untreated sample.

[3] = test system: Plutella xylostella (Diamond Back Moth); assay: Example B5: Plutella xylostella, artificial diet in 24-well plates, eggs; settings: 192 h, application rate of 200 ppm, 8 days after infestation, in comparison to untreated samples, read-out: effect in at least one of the two categories (mortality or growth inhibition)
Experimental: Example B5: Plutella xylostella (Diamond Back Moth)
24-well microtiter plates with artificial diet were treated with aqueous test solutions prepared from 10′000 ppm DMSO stock solutions by pipetting. After drying, Plutella eggs were pipetted through a plastic stencil onto a gel blotting paper and the plate was closed with it. The samples were assessed for mortality and growth inhibition in comparison to untreated samples 8 days after infestation.
The following compounds gave an effect of at least 80% in at least one of the two categories (mortality or growth inhibition) at an application rate of 200 ppm: • P1, P2, P3, P4, P5, P7, P8, P9, P14, P15, P16, P17, P18, P21, P22, P23, P24, P25, P27, P28, P29, P30, P31, P32, P33, P34, P35, P36

[4] = test system: Myzus persicae (Green Peach Aphid); assay: Example B13: Myzus persicae, sucrose solution under Parafilm, 96-well; settings: 120 h, application rate of 50 ppm, 5 days after infestation
From the text: Example B13: Myzus persicae (Green Peach Aphid)
Test compounds prepared from 10′000 ppm DMSO stock solutions were applied by a liquid handling robot into 96-well microtiter plates and mixed with a sucrose solution. Parafilm was stretched over the 96-well microtiter plate and a plastic stencil with 96 holes was placed onto the plate. Aphids were sieved into the wells directly onto the Parafilm. The infested plates were closed with a gel blotting card and a second plastic stencil and then turned upside down. The samples were assessed for mortality 5 days after infestation.

[5] = test system: Spodoptera littoralis (Egyptian Cotton Leaf Worm); assay: Example B9: Spodoptera littoralis, cotton leaf discs sprayed, L1 larvae; settings: foliar, 72 h, application rate of 200 ppm, five L1 larvae, 3 days after infestation, in comparison to untreated samples, read-out: control in at least one of the categories (mortality, anti-feedant effect, or growth inhibition)
Experimental: Example B9: Spodoptera littoralis (Egyptian Cotton Leaf Worm)
Cotton leaf discs were placed onto agar in 24-well microtiter plates and sprayed with aqueous test solutions prepared from 10′000 ppm DMSO stock solutions. After drying the leaf discs were infested with five L1 larvae. The samples were assessed for mortality, anti-feeding effect, and growth inhibition in comparison to untreated samples 3 days after infestation. Control of Spodoptera littoralis by a test sample is given when at least one of the categories mortality, anti-feedant effect, and growth inhibition is higher than the untreated sample.

[6] = test system: Plutella xylostella (Diamondback Moth); assay: Example B14: Plutella xylostella, artificial diet in 96-well plates, eggs; settings: 216 h, application rate of 500 ppm, 9 days after infestation
Experimental: Example B14: Plutella xylostella (Diamondback Moth)
96-well microtiter plates containing artificial diet were treated with aqueous test solutions, prepared from 10′000 ppm DMSO stock solutions, by a liquid handling robot. After drying, eggs (˜30 per well) were infested onto a netted lid which was suspended above the diet. The eggs hatch and L1 larvae move down to the diet. The samples were assessed for mortality 9 days after infestation.
The following compounds gave an effect of at least 80% average mortality at an application rate of 500 ppm: • P2, P3, P5, P6, P7, P9, P15, P16, P17, P18, P20, P22, P24, P25, P30, P31, P32, P33, P38.

[7] = test system: Myzus persicae (Green Peach Aphid); assay: Example B8: Myzus persicae intrinsic activity, sucrose solution under Parafilm, 24-well; settings: 120 h, test rate of 12 ppm, 5 days after infestation
From the text: Example B8: Myzus persicae (Green Peach Aphid): Intrinsic Activity
Test compounds prepared from 10′000 ppm DMSO stock solutions were applied by pipette into 24-well microtiter plates and mixed with sucrose solution. The plates were closed with a stretched Parafilm. A plastic stencil with 24 holes was placed onto the plate and infested pea seedlings were placed directly on the Parafilm. The infested plate was closed with a gel blotting paper and another plastic stencil and then turned upside down. The samples were assessed for mortality 5 days after infestation.

C=C(F)c1nc(C(C)N(C)C(=O)c2cc(C(F)(F)F)cc(C(F)(F)F)c2)n(-c2ncccn2)n1 (stereo not shown) [Compound P14, N-[1-[5-(1-fluorovinyl)-2-pyrimidin-2-yl-1,2,4-triazol-3-yl]ethyl]-N-methyl-3,5-bis(trifluoromethyl) benzamide]
≥ 80%: percent effect (mortality or growth inhibition) at 200 ppm [1] | percent control (mortality, anti-feedant effect or growth inhibition) at 200 ppm [2] | percent effect (mortality or growth inhibition) at 200 ppm [3] | mortality at 50 ppm [4]

CC(c1nc(Br)nn1-c1ccccn1)N(C)C(=O)c1cc(C(F)(F)F)cc(C(F)(F)F)c1 (stereo not shown) [Compound P24, N-[1-[5-bromo-2-(2-pyridyl)-1,2,4-triazol-3-yl]ethyl]-N-methyl-3,5-bis(trifluoromethyl) benzamide]
≥ 80%: percent effect (mortality or growth inhibition) at 200 ppm [1] | percent effect (mortality or growth inhibition) at 200 ppm [3] | percent control (mortality, anti-feedant effect or growth inhibition) at 200 ppm [5] | mortality at 500 ppm [6]

C[C@H](NC(=O)c1cc(C(F)(F)F)cc(C(F)(F)F)c1)c1nc(OC(F)(F)F)nn1-c1ncccn1 [Compound P23, N-[(1S)-1-[2-pyrimidin-2-yl-5-(trifluoromethoxy)-1,2,4-triazol-3-yl]ethyl]-3,5-bis(trifluoromethyl)benzamide]
≥ 80%: percent effect (mortality or growth inhibition) at 200 ppm [1] | percent effect (mortality or growth inhibition) at 200 ppm [3] | percent control (mortality, anti-feedant effect or growth inhibition) at 200 ppm [5]

CC(c1nc(S(=O)(=O)C(F)(F)F)nn1-c1ncccn1)N(C)C(=O)c1cc(C(F)(F)F)cc(C(F)(F)F)c1 (stereo not shown) [Compound P19, N-methyl-N-[1-[2-pyrimidin-2-yl-5-(trifluoromethylsulfonyl)-1,2,4-triazol-3-yl]ethyl]-3,5-bis(trifluoromethyl)benzamide]
≥ 80%: percent effect (mortality or growth inhibition) at 200 ppm [1] | percent control (mortality, anti-feedant effect or growth inhibition) at 200 ppm [2]

CC(NC(=O)c1cc(C(F)(F)F)cc(C(F)(F)F)c1)c1nc(Cl)nn1-c1ncccn1 (stereo not shown) [Compound P34, N-[1-(5-chloro-2-pyrimidin-2-yl-1,2,4-triazol-3-yl)ethyl]-3,5-bis(trifluoromethyl) benzamide]
≥ 80%: percent effect (mortality or growth inhibition) at 200 ppm [1] | percent control (mortality, anti-feedant effect or growth inhibition) at 200 ppm [2] | percent effect (mortality or growth inhibition) at 200 ppm [3] | mortality at 12 ppm [7] | percent control (mortality, anti-feedant effect or growth inhibition) at 200 ppm [5]

CC(=O)c1nc(C(C)NC(=O)c2cc(C(F)(F)F)cc(C(F)(F)F)c2)n(-c2ncccn2)n1 (stereo not shown) [Compound P35, N-[1-(5-acetyl-2-pyrimidin-2-yl-1,2,4-triazol-3-yl)ethyl]-3,5-bis(trifluoromethyl) benzamide]
≥ 80%: percent effect (mortality or growth inhibition) at 200 ppm [1] | percent control (mortality, anti-feedant effect or growth inhibition) at 200 ppm [2] | percent effect (mortality or growth inhibition) at 200 ppm [3] | percent control (mortality, anti-feedant effect or growth inhibition) at 200 ppm [5]

CC(c1nc(SC(F)(F)F)nn1-c1ncccn1)N(C)C(=O)c1cc(C(F)(F)F)cc(C(F)(F)F)c1 (stereo not shown) [Compound P20, N-methyl-N-[1-[2-pyrimidin-2-yl-5-(trifluoromethylsulfanyl)-1,2,4-triazol-3-yl]ethyl]-3,5-bis(trifluoromethyl)benzamide]
≥ 80%: percent effect (mortality or growth inhibition) at 200 ppm [1] | percent control (mortality, anti-feedant effect or growth inhibition) at 200 ppm [5] | mortality at 500 ppm [6]

CC(NC(=O)c1cc(C(F)(F)F)cc(C(F)(F)F)c1)c1nc(OCC(F)(F)F)nn1-c1ncccn1 (stereo not shown) [Compound P27, N-[1-[2-pyrimidin-2-yl-5-(2,2,2-trifluoroethoxy)-1,2,4-triazol-3-yl]ethyl]-3,5-bis(trifluoromethyl) benzamide]
≥ 80%: percent effect (mortality or growth inhibition) at 200 ppm [1] | percent control (mortality, anti-feedant effect or growth inhibition) at 200 ppm [2] | percent effect (mortality or growth inhibition) at 200 ppm [3] | percent control (mortality, anti-feedant effect or growth inhibition) at 200 ppm [5]

CC#Cc1nc(C(C)N(C)C(=O)c2cc(C(F)(F)F)cc(C(F)(F)F)c2)n(-c2ncccn2)n1 (stereo not shown) [Compound P8, N-methyl-N-[1(5-prop-1-ynyl-2-pyrimidin-2-yl-1,2,4-triazol-3-yl)ethyl]-3,5-bis(trifluoromethyl) benzamide]
≥ 80%: percent effect (mortality or growth inhibition) at 200 ppm [1] | percent control (mortality, anti-feedant effect or growth inhibition) at 200 ppm [2] | percent effect (mortality or growth inhibition) at 200 ppm [3]

CC(NC(=O)c1cc(C(F)(F)F)cc(C(F)(F)F)c1)c1nc(-c2nnco2)nn1-c1ncccn1 (stereo not shown) [Compound P30, N-[1-[5-(1,3,4-oxadiazol-2-yl)-2-pyrimidin-2-yl-1,2,4-triazol-3-yl]ethyl]-3,5-bis(trifluoromethyl)benzamide]
≥ 80%: percent effect (mortality or growth inhibition) at 200 ppm [1] | percent control (mortality, anti-feedant effect or growth inhibition) at 200 ppm [2] | percent effect (mortality or growth inhibition) at 200 ppm [3] | mortality at 12 ppm [7] | percent control (mortality, anti-feedant effect or growth inhibition) at 200 ppm [5] | mortality at 50 ppm [4] | mortality at 500 ppm [6]

CC(NC(=O)c1cc(Br)cc(C(F)(F)F)c1)c1nc(Br)nn1-c1ncccn1 (stereo not shown) [Compound P31, 3-bromo-N-[1-(5-bromo-2-pyrimidin-2-yl-1,2,4-triazol-3-yl)ethyl]-5-(trifluoromethyl) benzamide]
≥ 80%: percent effect (mortality or growth inhibition) at 200 ppm [1] | percent control (mortality, anti-feedant effect or growth inhibition) at 200 ppm [2] | percent effect (mortality or growth inhibition) at 200 ppm [3] | mortality at 12 ppm [7] | percent control (mortality, anti-feedant effect or growth inhibition) at 200 ppm [5] | mortality at 500 ppm [6]

CC(c1nc(-c2ccccc2)nn1-c1ncccn1)N(C)C(=O)c1cc(C(F)(F)F)cc(C(F)(F)F)c1 (stereo not shown) [Compound P6, N-methyl-N-[1-(5-phenyl-2-pyrimidin-2-yl-1,2,4-triazol-3-yl)ethyl]-3,5-bis(trifluoromethyl)benzamide]
≥ 80%: percent effect (mortality or growth inhibition) at 200 ppm [1] | mortality at 500 ppm [6]

CC(c1nc(C#N)nn1-c1ncccn1)N(C)C(=O)c1cc(C(F)(F)F)cc(C(F)(F)F)c1 (stereo not shown) [Compound P9, N-[1-(5-cyano-2-pyrimidin-2-yl-1,2,4-triazol-3-yl)ethyl]-N-methyl-3,5-bis(trifluoromethyl) benzamide]
≥ 80%: percent effect (mortality or growth inhibition) at 200 ppm [3] | mortality at 500 ppm [6]
